From US20250034129A1, “CRYSTALLINE FORMS OF (6S,7S)-6-FLUORO-7-(2-FLUORO-5-METHYLPHENYL)-3-(TETRAHYDRO-2H-PYRAN-4-YL)-5,6,7,8-TETRAHYDROPYRIDO[2,3-d]PYRIMIDINE-2,4(1H,3H)-DIONE” (MYOKARDIA, INC., priority 2023, published 2025)

How the values were obtained:
Format in all cases: physicochemical
[1] = Competitive slurry experiments in ethanol
[2] = Vapor sorption analysis (TA Instrument VTI-SA+)
Experimental: The vapor sorption experiments for Form B were performed using a TA Instrument VTI-SA+ Vapor Sorption Analyzer. Sample (˜10 mg) was placed in a previously cleaned and tarred platinum pan then loaded into the instrument chamber. Sample was dried at 60° C. until the loss rate of 0.005 wt %/min was obtained for 10 minutes. The sample was then held isothermally at 25° C. while the % RH of the system was stepped between 4, 5, 15, 25, 35, 45, 55, 65, 75, 85, 95, 85, 75, 65, 55, 45, 35, 25, 15, 5, 4% RH. Equilibration criteria was +/−0.01 wt % for 35 min with a maximum equilibration time of 600 min at each step.

[3] = Solid state stability in bio-relevant media; conditions: pH 1 HCl 0.1 M, pH 3.05 citrate 50 mM, pH 7.4 phosphate 50 mM, Fassif pH 6.5, Fessif pH 5.0, 37° C., 200 rpm
Experimental: Form B was added to bio-relevant media (pH 1 HCl 0.1 M; pH 3.05 citrate 50 mM; pH 7.4 phosphate 50 mM; Fassif pH 6.5; Fessif pH 5.0) and solid state stability in the media was determined. Procedures are described in more detail as follows:
pH 1 HCl 0.1M: […] HCl was diluted to 100 mL with water. pH 1.02
pH 3.05 citrate 50 mM: 82 mL of 0.1 M citric acid and 18 mL of 0.1 M sodium citrate were mixed together. pH=3.07.
pH 7.4 phosphate 50 mM: 50 mL of 0.2 M KH2PO4 and 39.1 mL of 0.2 M NaOH were dissolved and diluted to 200 mL with water. pH 7.39.
Fassif pH 6.5: 23.4 mg of NaOH, 224.7 mg of NaH2PO4·2H2O and 304.3 mg of NaCl were dissolved and diluted to 50 mL with water. 33.6 mg of SIF powder was dissolved in 15 mL of FaSSIF buffer solution. The solution was kept stirring and equilibrated at ambient condition with light protection for 2 hours. pH=6.37.
Fessif pH 5.0: 202.6 mg of NaOH, 432.7 mg of acetic acid, and 591.3 mg of NaCl were dissolved and diluted to 50 mL with water. pH of the solution was 4.99. 168 mg of SIF powder was dissolved in 15 mL of FeSSIF buffer solution. The solution was kept stirring and equilibrated at ambient condition with light protection for 2 hours. pH=4.94.
30-50 mg of Form B was weighed into 12 mL sample vials and then 3 mL of test media was added respectively. The suspensions were kept shaking at 200 rpm under 37° C. for 24 hours. […]

[4] = Slurry conversion of Form A in anhydrous ethanol; conditions: 60° C., 24 hours
Experimental: 3 g of Form A was slurried in 90 mL anhydrous ethanol at 60° C. for 24 hours.

[5] = Stability study of Form B (thermal and humidity treatments; HPLC purity, XRPD form)
Experimental: The stability study of Form B (before milling) was carried out at 80° C. for two weeks and at 40° C./75% RH for one month. Purity was determined by HPLC and stability was determined by XRPD. […] The stability of milled Form B was carried out as well under the same conditions. […] A purity decrease of 0.8% was detected for milled Form B after being treated at 80° C. for […].

Cc1ccc(F)c([C@@H]2Nc3[nH]c(=O)n(C4CCOCC4)c(=O)c3C[C@@H]2F)c1 [Form B, (6S,7S)-6-fluoro-7-(2-fluoro-5-methylphenyl)-3-(tetrahydro-2H-pyran-4-yl)-5,6,7,8-tetrahydropyrido[2,3-d]pyrimidine-2,4(1H,3H)-dione]
relative stability versus Form A in competitive slurry ([1]; 10° C. and 60° C.): more stable compared to Form A
relative stability versus Form C in competitive slurry ([1]; 10° C. and 60° C.): more stable compared to Form C
relative stability versus Form E in competitive slurry ([1]; 22.5° C. and 60° C.): more stable compared to Form E
overall thermodynamic stability ranking compared to Forms A, C and E ([1]; temperature ranges covered in the experiments): thermodynamically most stable anhydrous form
hygroscopicity by vapor sorption analysis [2]: non-hygroscopic
weight percent gain as measured by vapor sorption analyzer ([2]; up to 95% RH, 25° C.): less than 0.05%
solid form by XRPD after 24 hours in bio-relevant media [3]: remained as Form B
thermodynamic stability compared to Form A, from conversion of Form A to Form B [4]: superior thermodynamic stability
purity by HPLC after stability test ([5]; before milling, 40° C./75% RH for one month): 99.9%
purity by HPLC after stability test ([5]; before milling, 80° C. for two weeks): 99.9%
crystal form by XRPD after stability test ([5]; before milling, 80° C. for two weeks and 40° C./75% RH for one month): remained unchanged
crystal form by XRPD after thermal and humidity treatments ([5]; milled, 40° C./75% RH and 80° C.): remains unchanged
degradation after stability test ([5]; milled, 40° C./75% RH for four weeks): did not show any degradation
purity decrease after stability test ([5]; milled, 80° C. for four weeks): 0.8%
